{"source": "patent US20080038288A1", "about": "“Prevention of damage in hippocampus of fetus/newborn infant due to maternal gestational hypertension” (priority 2006, published 2008)", "key": {"[1]": {"system": "E21 day rat embryo hippocampal cells", "assay": "Flow cytometry of hippocampal cell cycle in E21 embryos of L-NAME gestational hypertension rats", "type": "in vivo", "conditions": "dam given L-NAME 60 mg/kg/day i.p. plus gastric feeding E14-20, mean ± sx", "text": "(§1) Animal groups and administration of medication. Gestational hypertension (GH) was produced in rats using the L-NAME (a type of NOS inhibitor) method of Yallampalli et al. [Yallampalli et al., Am J Obstet Gynecol., 1993, 169:1316-1320]. Forty mature (11-12 weeks old) SD female rats weighing 200-230 g; 10 mature (13-15 weeks old) SD male rats weighing 250-300 g. At a ratio of […], the rats were paired in cages, on the second day the female rats' vaginal secretions were observed (smear technique) and those containing sperm were considered to be at day 0 of pregnancy (E0). […] L-NAME was given by two injections at a total dose of 60 mg/kg/day. Two hours after each injection, the pregnant rats received gastric feeding of distilled water, L-arginine or GLSs. The GLSs were provided by Kindway International Ltd./Holistol International Ltd., license number GANSPSP04040104. The L-arginine was purchased from the Amresco Company.\n(§2) Preparation of histological materials. Some of the pregnant rats were anesthetized at E21 day with an i.p. injection of 1% pentobarbital (35 mg/kg). The embryos were removed from the uterus. […]\nHippocampal tissue separated from E21 day rat embryos was placed in a culture dish and sheared into pieces, 0.01 mol/L phosphate buffered saline (PBS) was added and repeatedly triturated, filtered through a 100-mesh screen, and the single-cell suspension obtained was fixed in 75% alcohol at 4° C. to await testing. Before testing, the extracted cell suspension was centrifuged to remove the supernatant, 100 μL RNase (0.1 mg/L) added, placed at 37° C. for 30 min, after rinsing with normal saline, propidium iodine (PI) stain (0.05 mg/L, 0.03% Triton X-100 0.5 mL) was added, placed at 4° C. protected from light to react for 30 min, then measured. In flow cytometry, a 488 nm laser used Cell Fit software to collect 10,000 cells/specimen cell cycle data was analyzed and one-way ANOVA testing performed for statistical processing."}, "[2]": {"system": "hippocampus dentate gyrus proliferating cells", "assay": "BrdU labeling, positive cell counts at hippocampus dentate gyrus of P30 rats born to L-NAME rats", "type": "in vivo, rat", "conditions": "dam given L-NAME plus gastric feeding E14-20, mean ± sd", "text": "as §1\nPreparation of histological materials. Some of the pregnant rats were anesthetized at E21 day with an i.p. injection of 1% pentobarbital (35 mg/kg). The embryos were removed from the uterus. Some were placed in a freezer dish and the hippocampal tissue was removed from the brains of the embryos, placed in an Eppendorf tube and stored at −80° C. to await testing. The rest of the embryonic brains were fixed in a 4% paraformaldehyde solution. […]"}, "[3]": {"system": "hippocampus microvessels", "assay": "Hippocampal microvessel density, vWF immunohistochemical staining, Weidner counting", "type": "in vivo, rat", "conditions": "dam given L-NAME plus gastric feeding E14-20, mean ± sd", "text": "as §1, §2\nHippocampal microvessel density: The Weidner counting method was used to determine the microvessel standard [Weidner et al., Am J Pathol. […] Under a light microscope (200×), microvessel numbers were counted in five visual fields. […]"}, "[4]": {"system": "hippocampus CA1, CA3 and DG neurons", "assay": "Morphometric analysis: hippocampal cell layer thickness and neuron body count, neutral red staining", "type": "in vivo, rat", "conditions": "P30 rats, mean ± sd", "text": "as §1\nPreparation of histological materials. Some of the pregnant rats were anesthetized at E21 day with an i.p. injection of 1% pentobarbital (35 mg/kg). The embryos were removed from the uterus. Some were placed in a freezer dish and the hippocampal tissue was removed from the brains of the embryos, placed in an Eppendorf tube and stored at −80° C. to await testing. The rest of the embryonic brains were fixed in a 4% paraformaldehyde solution. Another group of pregnant rats went into normal labor, and the young rats were fed and raised until 30 days of […] (P30). Some of the young rats received the preceding pentobarbital anesthesia and their hippocampal tissue was placed in a freezer dish and stored to await testing. The rest of the rats in the P30 group received pentobarbital anesthesia as above, their chests were opened and an aortic cannula inserted through the left ventricle. One group of young rats was first quickly perfused with normal saline and then 4% paraformaldehyde 0.1 mol/L phosphate buffer (PB) (pH 7.4). Then the fixed cerebral corona was continuously frozen and sectioned at a thickness of 15 μm. Sectioning started at the alveus of the hippocampus, one section every 300 μm, and six sections were taken from each brain, for a collection of six sets of sections.\nMorphometric analysis. Various cell layer thicknesses from various areas of the hippocampus were measured and a neuron body count obtained. Under a low-magnification microscope, two visual fields were randomly selected from the CA1, CA3 and DG regions. Under a high-magnification microscope (200×), the cell layer thickness was measured and the number of nucleated neuron bodies counted. The cell layer thicknesses or body numbers are the averages of two visual fields."}}, "note": "Marks after values point to notes of the source that are not given here.", "data": [{"smiles": "N=C(N)NCCC[C@H](N)C(=O)O", "note": "[L-arg, L-arginine]", "values": [{"measurement": "Percentage of hippocampal cells in G1/G0 phase", "setting": "[1]", "value": "82.74 ± 2.75^h %"}, {"measurement": "Percentage of hippocampal cells in G2/M phase", "setting": "[1]", "value": "1.44 ± 0.44^i %"}, {"measurement": "Percentage of hippocampal cells in S phase", "setting": "[1]", "value": "15.34 ± 2.92^g %"}, {"measurement": "BrdU positive cell counts at hippocampus dentate gyrus", "setting": "[2]", "value": "38.00 ± 1.04^c"}, {"measurement": "Microvessel density at the hippocampus, E21", "setting": "[3]; E21 embryos", "value": "39.80 ± 4.79^e"}, {"measurement": "Microvessel density at the hippocampus, P30", "setting": "[3]; P30 rats", "value": "75.25 ± 3.86^f"}, {"measurement": "Hippocampal cell layer thickness CA1", "setting": "[4]; CA1 area", "value": "115.23 ± 9.49^m μm"}, {"measurement": "Neuron body counts CA1", "setting": "[4]; CA1 area", "value": "31.80 ± 1.15^n num"}, {"measurement": "Hippocampal cell layer thickness CA3", "setting": "[4]; CA3 area", "value": "90.64 ± 6.18^o μm"}, {"measurement": "Neuron body counts CA3", "setting": "[4]; CA3 area", "value": "23.00 ± 0.83^p num"}, {"measurement": "Hippocampal cell layer thickness DG", "setting": "[4]; DG area", "value": "64.87 ± 4.42^q μm"}]}]}
